# In patent publication US8748497B2, “Optimized fluorocarbon emulsions for blood substitutes and other therapeutic uses” (Alliance Pharmaceutical Corp., priority 2006, dated 2014):
# Assay: intravascular persistence of PFOB and PFDB after 60/30% w/v PFOB/PFDB emulsion
# Assay type: in vivo
# Conditions: rats
# Excerpt: FIG. 4 represents typical data for the removal of both PFOB and PFDB. […] In general, the rate constant for PFDB removal is 20-30% less than that of PFOB.
# The emulsion composition with the data shown in FIG. 4 contains a 60/30% (w/v) ratio of PFOB/PFDB stabilized by 6% w/v EYP. In this case, the rate constant for PFDB removal is 20% higher than that of PFOB. It might be assumed that in the first few hours after administration that the removal from blood is controlled by k12 (see FIG. 1). The fluorochemical composition of circulating emulsion droplets should, therefore, remain intact. How is it then that the two disperse phase components could have different rate constants? To answer this question, the composition of the intravenously administered droplets can be examined through the use of sedimentation field-flow fractionation (SdFFF) coupled with gas chromatography, thereby confirming the nature of the droplets.
compound,measurement,setting,value
"FC(F)(F)C(F)(F)C(F)(F)C(F)(F)C(F)(F)C(F)(F)C(F)(F)C(F)(F)C(F)(F)C(F)(F)Br [PFDB, perfluorodecyl bromide]","rate constant for removal, less than that of PFOB",in general,20-30%
same,"rate constant for removal, higher than that of PFOB","in this case (FIG. 4), 60/30% w/v PFOB/PFDB, 6% w/v EYP",20%
